This is an account of results in article PMC12704579, “New Anticancer 4‐Aryldihydropyrimidinone‐5‐Carboxylates Targeting Hsp90” (Chemical Biology & Drug Design, 2025).

Broadly, the IC50 is the midpoint of a concentration-inhibition curve. As usually defined, the efflux ratio is the permeability from basolateral to apical divided by that in the opposite direction, in the common usage. In general, solubility refers to how much of the substance goes into solution per volume. In general, viability refers to the share of living cells, or the viability signal relative to a control. What is called half-life is the time in which the quantity being followed falls by half.

In brackets after ≈: the same amount, converted by molar mass. Where two headings read alike, the source gives them in different places.

The test system of one data set is MDA-MB-231 cells. Put plainly: Colony forming assay, MDA-MB-231. Format: cell-based, human. How it is done:
(§1) Human Embryonic Kidney cells (HEK‐293) and human breast cancer cells (MCF‐7, MDA‐MB‐231 and HCC1954) were cultured in complete growth media: […] 1X (Gibco); 10% v/v Fetal Bovine Serum (FBS, Sigma Dorset UK) and L‐glutamine (2 mM, Invitrogen). SW‐480‐WT cells were maintained in selective media made up of Dulbecco's Modified Eagle Medium (Gibco), enriched with […] of Geneticin Selective Antibiotic (G418 Sulfate; Gibco, Thermo Fisher). Cells were incubated at a 5% CO2 atmosphere at 37°C.
(§2) Cells were seeded in a 12‐well plate at 400 cells per well. One hour after the seeding of the cells, compounds (1 mM, 100 μM, 10 μM, 1 μM, 100 nM, 10 nM) or vehicle were added into the wells in triplicate (DMSO vehicle 0.1% and 1%). After 7 days, colonies were stained with 350 μL of crystal violet solution, incubated for 30 min at room temperature, then wells were washed in water and dried. At least the best 3 independent experiments out of 5 independent repeats were used to perform the statistical analysis of the results. Colonies were counted by GelCount Colony Counter (Oxford Optronix Ltd.) using the GelCount 1.1.8.0 software. Assay end points were normalised to 0% (DMSO only) and fitted to a semi‐log plot using at least n = 3 technical replicates (n = 6 for DMSO control and N = 3 independent replicates). The curve fit was performed using GraphPad Prism. […]

The subject of the next data set is Caco-2 cell model. Briefly: Caco-2 membrane permeability (Cyprotex). The format is in vitro ADME. On the procedure:
(§3) All the selected analogues were calculated to be compliant with the Lipinski rule‐of‐five guidelines for oral bioavailability. Furthermore, in vitro ADME (absorption, distribution, metabolism, excretion) properties were assessed as an outsourced service (Cyprotex Discovery Ltd., UK; part of the EvoTec Group); profiling membrane permeability (Caco‐2 cell model), hERG channel cardiotoxicity, human microsomal stability and turbidometric solubility (Table 4).

The nature of data set [1]: Caco-2 membrane permeability (Cyprotex). The format is in vitro ADME. The conditions noted are these: human, Caco-2. On the procedure:
as §3
In general terms: Caco-2 monolayers are a common model of the intestinal barrier.

The test system of another data set is SW-480 cells. Put plainly: Colony forming assay, SW-480. Format: cell-based, human. On the procedure: as §1, §2
Data set [2] can be described thus: Turbidometric solubility (Cyprotex). The format is physicochemical. The conditions noted are these: kinetic from dmso stock. On the procedure: as §3
The test system of the next data set is BT474 cells. Briefly: Colony forming assay, BT474. The format is cell-based, human. The conditions noted are these: 7 days treatment at 10 μM. How it is done: (§4) Cells were seeded in a 12‐well plate at 400 cells per well. One hour after the seeding of the cells, compounds (1 mM, 100 μM, 10 μM, 1 μM, 100 nM, 10 nM) or vehicle were added into the wells in triplicate (DMSO vehicle 0.1% and 1%). After 7 days, colonies were stained with 350 μL of crystal violet solution, incubated for 30 min at room temperature, then wells were washed in water and dried. At least the best 3 independent experiments out of 5 independent repeats were used to perform the statistical analysis of the results. Colonies were counted by GelCount Colony Counter (Oxford Optronix Ltd.) using the GelCount 1.1.8.0 software. Assay end points were normalised to 0% (DMSO only) and fitted to a semi‐log plot using at least n = 3 technical replicates (n = 6 for DMSO control and N = 3 independent replicates). The curve fit was performed using GraphPad Prism.
(§5) Compound 5d was screened for the ability to inhibit colony formation in additional human cancer cell lines (Table 3). […] Sub‐micromolar IC50 values in HCC1954 and MDA‐MB‐231 cells were derived by testing over a six‐fold log concentration range. To further extend the profile of activity, the effect of 5d on the colorectal adenocarcinoma cell line SW‐480 was studied, with similarly potent effects on colony viability (Table 3).

In the next data set the target is T1, hERG channel (Homo sapiens, UniProt Q12809).
T1 construct: Cyprotex Discovery Ltd., UK
Put plainly: hERG channel cardiotoxicity assay (Cyprotex). On the procedure:
as §3
On the technique in general: hERG is a cardiac potassium channel; its block is linked to QT prolongation.

A further data set has as its system SKBR3 cells. Put plainly: Colony forming assay, SKBR3. The format is cell-based, human. The settings on record: 7 days treatment at 10 μM. How it is done: as §4, §5
A short description of data set [3]: CellTiter-Blue cell viability assay, HEK-293 (24 h). The format is cell-based, human. The settings on record: human, HEK-293 cells, CellTiter-Blue, 24 h incubation, 10 μM test compound, standardised to DMSO control. On the technique in general: Alamar Blue is a resazurin reagent that responds to reducing activity.
For the next data set, the system named is HCC1954 cells. Put plainly: Colony forming assay, HCC1954. The format is cell-based, human. How it is done:
as §1, §2

A short description of data set [4]: Human microsomal stability (Cyprotex). The format is in vitro ADME. The conditions noted are these: human microsomes; for microsomal CLint: read-out: Metabolic stability (human microsomes) CLint; for half-life: read-out: Metabolic stability (human microsomes) Half-life. On the procedure:
as §3

Setting [5] is: read-out: Solubility - estimated precipitation range, Calc. mid-range.
[6] abbreviates: read-out: Solubility - estimated precipitation range, Lower-bound.
[7] abbreviates: read-out: Solubility - estimated precipitation range, Upper-bound.

T1 sequence (Q12809 whole entry): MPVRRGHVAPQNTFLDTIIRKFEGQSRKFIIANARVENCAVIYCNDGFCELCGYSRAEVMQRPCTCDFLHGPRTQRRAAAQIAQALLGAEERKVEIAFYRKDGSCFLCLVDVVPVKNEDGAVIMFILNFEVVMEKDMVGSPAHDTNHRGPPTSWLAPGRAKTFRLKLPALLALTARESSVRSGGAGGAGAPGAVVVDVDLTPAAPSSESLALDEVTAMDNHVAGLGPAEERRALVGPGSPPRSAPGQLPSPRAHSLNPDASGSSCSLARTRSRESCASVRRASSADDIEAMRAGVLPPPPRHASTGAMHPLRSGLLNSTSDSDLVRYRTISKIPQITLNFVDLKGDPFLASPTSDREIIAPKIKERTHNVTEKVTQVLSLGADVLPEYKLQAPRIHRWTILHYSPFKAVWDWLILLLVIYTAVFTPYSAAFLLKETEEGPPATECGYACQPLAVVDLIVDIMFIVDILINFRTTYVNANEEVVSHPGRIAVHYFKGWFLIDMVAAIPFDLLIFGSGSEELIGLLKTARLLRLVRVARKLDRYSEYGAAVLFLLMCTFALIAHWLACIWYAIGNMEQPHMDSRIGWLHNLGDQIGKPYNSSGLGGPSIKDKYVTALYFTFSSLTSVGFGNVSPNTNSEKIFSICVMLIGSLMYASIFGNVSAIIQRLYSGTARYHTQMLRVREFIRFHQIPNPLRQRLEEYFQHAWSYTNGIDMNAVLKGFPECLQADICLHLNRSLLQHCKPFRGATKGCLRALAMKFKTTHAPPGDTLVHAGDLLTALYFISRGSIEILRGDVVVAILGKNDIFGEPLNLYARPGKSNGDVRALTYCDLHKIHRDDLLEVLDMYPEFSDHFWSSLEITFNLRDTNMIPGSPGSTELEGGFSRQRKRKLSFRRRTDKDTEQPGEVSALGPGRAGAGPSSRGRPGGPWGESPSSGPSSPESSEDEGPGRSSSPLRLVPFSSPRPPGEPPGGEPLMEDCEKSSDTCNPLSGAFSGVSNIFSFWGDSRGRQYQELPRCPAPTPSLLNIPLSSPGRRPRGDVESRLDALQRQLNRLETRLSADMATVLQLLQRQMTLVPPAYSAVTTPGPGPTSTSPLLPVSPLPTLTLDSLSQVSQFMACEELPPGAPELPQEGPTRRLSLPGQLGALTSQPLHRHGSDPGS

`COc1ccc(C2NC(=O)NC(C)=C2C(=O)OCc2ccc3c(c2)OCO3)c(F)c1` (centres unmarked) [Compound 5d, Benzo[d][1,3]dioxol‐5‐ylmethyl‐4‐(2‐Fluoro‐4‐Methoxyphenyl)‐6‐Methyl‐2‐Oxo‐1,2,3,4‐Tetrahydropyrimidine‐5‐Carboxylate]: the “Percentage of surviving colonies, MDA-MB-231” value with MDA-MB-231 cells (7 days treatment at 10 μM) is 11.9% ± 2.9. The IC50 was 0.62 µM in the data set with MDA-MB-231 cells (Homo sapiens, MDA-MB-231, read-out: Colony formation IC50, MDA-MB-231); 1.21 µM with SW-480 cells (Homo sapiens, SW480, read-out: Colony formation IC50, SW-480); above 25 µM against hERG channel; 0.56 µM with HCC1954 cells (Homo sapiens, HCC1954, read-out: Colony formation IC50, HCC1954). Besides, the “Caco-2 permeability Efflux ratio” value in the data set with Caco-2 cell model is given as 2.26. For the same molecule, the efflux ratio in data set [1] is above 2. The “Percentage of surviving colonies, SW-480” value with SW-480 cells (7 days treatment at 10 μM) is reported as 57.9% ± 2.0. The figures for the solubility in [2] (setting [5]), in data set [2] (setting [6]) and in data set [2] (setting [7]) were 3.75 µM (≈ 1.55 µg/mL), 1 µM (≈ 0.414 µg/mL) and 6.5 µM (≈ 2.69 µg/mL), respectively. Moreover, the “Percentage of surviving colonies, BT474” value with BT474 cells is 80.4% ± 8.0. For the same molecule, the “Percentage of surviving colonies, SKBR3” value in the data set with SKBR3 cells is 94.4% ± 2.1. The viability at 24 h, 10 µM in [3] came out at 99.9 ± 4.53%. In addition, the “Percentage of surviving colonies, HCC1954” value in the data set with HCC1954 cells (7 days treatment at 10 μM) is listed as 8.8% ± 4.0. Moreover, the microsomal CLint in [4] stood at 34.6 µL/min/mg. For the same molecule, the half-life in data set [4] was determined as 40.1 min.

Turning to `COc1ccc(COC(=O)C2=C(C)NC(=O)NC2c2ccc(Cl)cc2)cc1C` (centres unmarked) [Compound 5e, 4‐Methoxy‐3‐Methylbenzyl‐4‐(4‐Chlorophenyl)‐6‐Methyl‐2‐Oxo‐1,2,3,4‐Tetrahydropyrimidine‐5‐Carboxylate], the “Caco-2 permeability Efflux ratio” value in the data set with Caco-2 cell model turned out to be 2.74. In addition, in data set [1], the efflux ratio is above 2. For the same molecule, the results for the solubility in [2] (setting [5]), in data set [2] (setting [6]) and in data set [2] (setting [7]) were 65 µM (≈ 26.1 µg/mL), 30 µM (≈ 12 µg/mL) and 100 µM (≈ 40.1 µg/mL), respectively. Besides, on hERG channel, the IC50 was above 25 µM. In addition, in data set [3], the viability at 24 h, 10 µM came to 82%. In addition, the microsomal CLint in [4] is 108 µL/min/mg. The half-life in data set [4] was 12.8 min.
